Measured values from patent publication US20230391748A1, “BICYCLIC INHIBITORS OF IRAK” (priority 2022, published 2023).
Where two headings read alike, the source gives them in different places.

Tests used:
IL23p19 in THP-1 Cells = experiment: LPS Induced IL23p19 in THP-1 Cells (with IFNγ Primed) Assay; format: cell-based; details: Homo sapiens, THP-1, 18 h, read-out: IL23 (THP, LPS) (IC50, μM)
Experimental: LPS Induced IL23p19 in THP-1 Cells (with IFNγ Primed) Assay
On day 1, 50K/well THP-1 cells were seeded and primed with IFNγ (50 ng/mL) in 384-well plates for about 18 hours in RPMI media with 10% FBS. […] 50 μL/well 2× compound was added to 50 μL/well THP-1 cells (with IFNγ primed) in duplicate in 384 well tissue culture plates. […] Day 3, after stimulation for 18 hours at 37° C., 5% CO2, the assay plate was centrifuged and 70 μL/well supernatant was harvested. IL-23p19 protein in 70 µL/well of supernatant was measured by sandwich ELISA, and 25 μl/well Cell Titer Glo reagent was added to the remaining cells to measure compound toxicity.
Maxisorp immuno ELISA plates were pre-coated with 25 μL/well of anti-IL-23p19 capture antibody (2.5 ug/mL) in PBS overnight at room temperature. […] 25 μL/well of biotin labeled anti-IL-12(p40/p70) detection antibody (100 ng/mL) in PBS with 1% BSA was added and the plates were incubated at room temperature for 2 hours with shaking. […] The plates were read with a luminometer, and the chemiluminescence values were entered into Athena (Rigel) for curve fitting, EC50 calculation, and database storage.

IRAK4 = IRAK4 (Homo sapiens (Human), UniProt Q9NWZ3); experiment: IRAK4 ADP-Glo Assay; format: biochemical; details: MBP substrate
Experimental: The ADP-Glo™ reagents were thawed at ambient temperature. The Kinase Detection Reagent was prepared by mixing kinase detection buffer with the lyophilized kinase detection substrate, and set aside.
A stock volume of 5× Reaction Kinase Buffer was made with a final concentration of 100 mM MgCl2, 200 mM Tris-HCl, and 0.5 mg/ml of BSA, in distilled H2O with a final pH7.4. A 2× working stock volume of Reaction Kinase Buffer was made containing a final concentration of 100 μM DTT.
The components of IRAK4 Enzyme were thawed on ice. Diluted IRAK4 in 1× Kinase Reaction Buffer (diluted from 2× buffer) was prepared at 5.0 ng/μl.
Then diluted 1:5 in 2× Reaction Buffer in a 96 well plate. 1.0 μl was transferred to a 384 well plate in duplicate. […] 1 μl of 1 mg/ml stock solution of MBP substrate was added NOTE: MBP can be combined with ATP mix with equal volume and then added at 2 μl/well. Final reaction volume was 5 μl.
The plate was centrifuged and the reaction mixture was incubated at room temperature for 60 minutes or at 30° C. for 30 minutes.
The reaction was terminated and the remaining ATP was depleted by adding 5 μl of ADP-Glo™ Reagent. The 384-well plate was centrifuged and then the reaction mixture was incubated for another 40 minutes at ambient temperature.
10 μl of the Kinase Detection Reagent was added. The plate was centrifuged and then the reaction mixture was incubated for another 30 minutes at ambient temperature.
The 384-well reaction plate was read using the WALLAC plate reader (Luminescence 0.1s).

TNF-α in human PBMCs = experiment: R848-induced TNF-α in human PBMCs Assay; format: cell-based; details: Homo sapiens, PBMC, 4 h, read-out: TNFα (PBMC, R848) (IC50, μM)
Experimental: R848-induced TNF-α in human PBMCs Assay
100 μL/well PBMCs (200K/well) were seeded in 96-well flat-bottom tissue culture plates. […] 100 μL/well 2× compound was added to the PBMC in the tissue culture plates. […] The cells were stimulated with R848 for an additional 4 hours at 37° C., 5% CO2. The supernatant (100 μl/well) was harvested to measure TNF-α by ELISA. […] The chemiluminescence values were entered into Athena (Rigel) for curve fitting, EC50 calculation, and database storage.
(§1) TNF-α ELISA was performed according to the vendor protocol, using 96 Well Flat-Bottom, MaxiSorp Black Immuno plates and 100 μL/well of supernatant. The plates were developed using 100 μL/well of Super Signal ELISA Pico Chemiluminescent Substrate. The plates were read with a luminometer, and the chemiluminescence values were entered into Athena (Rigel) for curve fitting, EC50 calculation, and database storage.

[1] = test system: TNF-α in Human Primary Monocyte-Derived Dendritic Cells; experiment: Gardiquimod-Induced TNF-α in Human Primary Monocyte-Derived Dendritic Cells; format: cell-based; details: Dendritic cell
Experimental: Gardiquimod-Induced TNF-α in Human Primary Monocyte-Derived Dendritic Cells
After 2 hours, the media including floating cells was carefully removed and 12 ml of fresh RPMI media (10% FBS) containing GM-CSF (100 ng/ml) and IL-4 (20 ng/ml) were added to the adherent monocytes. The monocytes were allowed to differentiate for 7 days at 37° C., 5% CO2 for 7 days, supplementing with fresh GM-CSF and IL-4 after 3 days. The differentiated dendritic cells (DC) were harvested by centrifugation (1200 rpm/5 min). The DCs were primed at 37° C., 5% CO2 for 24 hours with 50 ng/ml IFN-γ (1000 U/ml) at 50K/well in 100 μl/well of fresh RPMI media (10% FBS) in a white clear bottom 96 well plate.
The primed DCs were pre-incubated with test compound for 1 hour at 37° C., 5% CO2 by adding 100 μl of RPMI media containing 2× concentrated test compound per well (0.5% final DMSO concentration).
DCs were stimulated with Gardiquimod (10 μl per well of 20× concentrated Gardiquimod solution in RPMI media to give a final concentration of 4 μg/ml) at 37° C., 5% CO2 for an additional 6 hours. The supernatant (100 μl/well) was harvested to measure TNF-α by ELISA. […] The chemiluminescence values were entered into Athena (Rigel) for curve fitting, EC50 calculation, and database storage.
as §1

[2] = IFNγ-primed monocyte-derived dendritic cells, 4 μg/ml Gardiquimod, 6 hours, TNF-α ELISA, read-out: TNFα (DC, GARD) (IC50)

Sequence of IRAK4 (Q9NWZ3 whole entry): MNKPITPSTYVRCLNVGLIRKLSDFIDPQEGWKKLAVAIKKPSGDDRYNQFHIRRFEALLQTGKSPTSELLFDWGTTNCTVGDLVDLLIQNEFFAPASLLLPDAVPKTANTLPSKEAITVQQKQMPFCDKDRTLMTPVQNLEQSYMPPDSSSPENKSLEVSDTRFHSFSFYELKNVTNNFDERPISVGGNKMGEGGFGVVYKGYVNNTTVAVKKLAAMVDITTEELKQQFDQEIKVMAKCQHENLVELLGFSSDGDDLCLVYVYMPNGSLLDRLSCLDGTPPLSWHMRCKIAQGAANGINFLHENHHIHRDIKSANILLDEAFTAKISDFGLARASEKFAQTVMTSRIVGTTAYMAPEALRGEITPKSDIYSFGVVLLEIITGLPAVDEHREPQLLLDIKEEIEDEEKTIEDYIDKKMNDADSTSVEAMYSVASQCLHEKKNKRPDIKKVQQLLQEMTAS

CC(C)Oc1cc2c(OC[C@@H]3CC(F)(F)C(=O)N3)ncc(-c3cnn(CCC4CCOCC4)c3)c2cc1C(N)=O [Compound I-72, (S)-1-((4,4-difluoro-5-oxopyrrolidin-2-yl)methoxy)-7-isopropoxy-4-(1-(2-(tetrahydro-2H-pyran-4-yl)ethyl)-1H-pyrazol-4-yl)isoquinoline-6-carboxamide]
IC50 (IL23p19 in THP-1 Cells): 0.872 µM
IC50 (IRAK4): 7 nM
IC50 (TNF-α in human PBMCs): 0.183 µM
IC50 [1, 2]: 0.273 µM

CC(C)Oc1cc2c(OC[C@@H]3CC(F)(F)C(=O)N3)ncc(C#CC3(O)CCCC3)c2cc1C(N)=O [Compound I-48, (S)-1-((4,4-difluoro-5-oxopyrrolidin-2-yl)methoxy)-4-((1-hydroxycyclopentyl)ethynyl)-7-isopropoxyisoquinoline-6-carboxamide]
IC50 (IL23p19 in THP-1 Cells): 0.165 µM
IC50 (IRAK4): 4.4 nM
IC50 (TNF-α in human PBMCs): 0.0569 µM
IC50 [1, 2]: 0.12 µM

CCO[C@H]1CC[C@H](n2cc(-c3cnc(OC[C@@H]4CCC(=O)N4)c4cc(OC(C)C)c(C(N)=O)cc34)cn2)CC1 [Compound I-39, 4-(1-(trans-4-ethoxycyclohexyl)-1H-pyrazol-4-yl)-7-isopropoxy-1-(((S)-5-oxopyrrolidin-2-yl)methoxy)isoquinoline-6-carboxamide]
IC50 (IL23p19 in THP-1 Cells): 0.775 µM
IC50 (IRAK4): 33.3 nM
IC50 (TNF-α in human PBMCs): 0.693 µM
IC50 [1, 2]: 3.52 µM

CC(C)Oc1cc2c(OC[C@@H]3CCC(=O)N3)ncc(C#CC3CN(C)C3)c2cc1C(N)=O [Compound I-26, (S)-7-isopropoxy-4-((1-methylazetidin-3-yl)ethynyl)-1-((5-oxopyrrolidin-2-yl)methoxy)isoquinoline-6-carboxamide]
IC50 (IL23p19 in THP-1 Cells): 0.726 µM
IC50 (IRAK4): 2.6 nM
IC50 (TNF-α in human PBMCs): 0.363 µM
IC50 [1, 2]: 0.161 µM

CC(C)Oc1cc2c(OC[C@@H]3CCC(=O)N3)ncc(C#CC(C)(C)O)c2cc1C(N)=O [Compound I-3, (S)-4-(3-hydroxy-3-methylbut-1-yn-1-yl)-7-isopropoxy-1-((5-oxopyrrolidin-2-yl)methoxy)isoquinoline-6-carboxamide]
IC50 (IL23p19 in THP-1 Cells): 0.879 µM
IC50 (IRAK4): 12.5 nM
IC50 (TNF-α in human PBMCs): 0.36 µM
IC50 [1, 2]: 0.411 µM

COC1(OC)CC(C#Cc2cnc(OC[C@@H]3CC(F)(F)C(=O)N3)c3cc(OC(C)C)c(C(N)=O)cc23)C1 [Compound I-65, (S)-1-((4,4-difluoro-5-oxopyrrolidin-2-yl)methoxy)-4-((3,3-dimethoxycyclobutyl)ethynyl)-7-isopropoxyisoquinoline-6-carboxamide]
IC50 (IL23p19 in THP-1 Cells): 0.0465 µM
IC50 (IRAK4): 8.7 nM
IC50 (TNF-α in human PBMCs): 0.0065 µM
IC50 [1, 2]: 0.029 µM

CC(C)Oc1cc2c(OC[C@@H]3CC(F)(F)C(=O)N3)ncc(C#CC3CCN(C(=O)OC(C)(C)C)CC3)c2cc1C(N)=O [Compound I-54, tert-butyl (S)-4-((6-carbamoyl-1-((4,4-difluoro-5-oxopyrrolidin-2-yl)methoxy)-7-isopropoxyisoquinolin-4-yl)ethynyl)piperidine-1-carboxylate]
IC50 (IL23p19 in THP-1 Cells): 2.97 µM
IC50 (IRAK4): 113 nM
IC50 (TNF-α in human PBMCs): 2.75 µM
IC50 [1, 2]: 1.71 µM

CC(C)Oc1cc2c(OC[C@@H]3CCC(=O)N3)ncc(-c3cnn([C@H]4CC[C@](C)(O)CC4)c3)c2cc1C(N)=O [Compound I-40, 4-(1-((1r,4S)-4-hydroxy-4-methylcyclohexyl)-1H-pyrazol-4-yl)-7-isopropoxy-1-(((S)-5-oxopyrrolidin-2-yl)methoxy)isoquinoline-6-carboxamide]
IC50 (IL23p19 in THP-1 Cells): 0.817 µM
IC50 (IRAK4): 17.1 nM
IC50 (TNF-α in human PBMCs): 0.188 µM
IC50 [1, 2]: 2.42 µM

CC(C)Oc1cc2c(OC[C@@H]3CC(F)(F)C(=O)N3)ncc(C#CC3(O)CCNCC3)c2cc1C(N)=O [Compound I-53, (S)-1-((4,4-difluoro-5-oxopyrrolidin-2-yl)methoxy)-4-((4-hydroxypiperidin-4-yl)ethynyl)-7-isopropoxyisoquinoline-6-carboxamide]
IC50 (IL23p19 in THP-1 Cells): 11 µM
IC50 (IRAK4): 6.3 nM
IC50 (TNF-α in human PBMCs): 3.06 µM
IC50 [1, 2]: 14.2 µM

CC(C)Oc1cc2c(OC[C@@H]3CCC(=O)N3)ncc(C#CC3CNC3)c2cc1C(N)=O [Compound I-25, (S)-4-(azetidin-3-ylethynyl)-7-isopropoxy-1-((5-oxopyrrolidin-2-yl)methoxy)isoquinoline-6-carboxamide]
IC50 (IL23p19 in THP-1 Cells): 12.7 µM
IC50 (IRAK4): 3.3 nM
IC50 (TNF-α in human PBMCs): 2.36 µM
IC50 [1, 2]: 1.35 µM

CC(C)Oc1cc2c(OC[C@@H]3CCC(=O)N3)ncc(Br)c2cc1C(N)=O [Compound I-1, (S)-4-bromo-7-isopropoxy-1-((5-oxopyrrolidin-2-yl)methoxy)isoquinoline-6-carboxamide]
IC50 (IL23p19 in THP-1 Cells): 9.48 µM
IC50 (IRAK4): 34 nM
IC50 (TNF-α in human PBMCs): 2.61 µM
IC50 ([1]; 6 h, read-out: TNFα (DC, GARD) (IC50, μM)): 2.64 µM

CC(C)Oc1cc2c(OC[C@@H]3CC(F)(F)C(=O)N3)ncc(C#CC3(O)CCOCC3)c2cc1C(N)=O [Compound I-51, (S)-1-((4,4-difluoro-5-oxopyrrolidin-2-yl)methoxy)-4-((4-hydroxytetrahydro-2H-pyran-4-yl)ethynyl)-7-isopropoxyisoquinoline-6-carboxamide]
IC50 (IL23p19 in THP-1 Cells): 1.27 µM
IC50 (IRAK4): 5.3 nM
IC50 (TNF-α in human PBMCs): 0.391 µM
IC50 [1, 2]: 1.03 µM

CCO[C@H]1CC[C@@H](C#Cc2cnc(OC[C@@H]3CC(F)(F)C(=O)N3)c3cc(OC(C)C)c(C(N)=O)cc23)CC1 [Compound I-59, 1-(((S)-4,4-difluoro-5-oxopyrrolidin-2-yl)methoxy)-4-((cis-4-ethoxycyclohexyl)ethynyl)-7-isopropoxyisoquinoline-6-carboxamide]
IC50 (IL23p19 in THP-1 Cells): 0.0466 µM
IC50 (IRAK4): 3.9 nM
IC50 (TNF-α in human PBMCs): 0.0472 µM
IC50 [1, 2]: 0.032 µM

CC(C)Oc1cc2c(O[C@@H]3CCCNC3)ncc(-c3cnn(CCC4CCOCC4)c3)c2cc1C(N)=O [Compound I-113, (R)-7-isopropoxy-1-(piperidin-3-yloxy)-4-(1-(2-(tetrahydro-2H-pyran-4-yl)ethyl)-1H-pyrazol-4-yl)isoquinoline-6-carboxamide]
IC50 (IL23p19 in THP-1 Cells): 8.82 µM
IC50 (IRAK4): 364 nM
IC50 (TNF-α in human PBMCs): 0.677 µM
IC50 [1, 2]: 0.853 µM

CC(C)Oc1cc2c(O[C@@H]3CCCNC3)ncc(-c3cnn(C4CCCC4)c3)c2cc1C(N)=O [Compound I-110, (R)-4-(1-cyclopentyl-1H-pyrazol-4-yl)-7-isopropoxy-1-(piperidin-3-yloxy)isoquinoline-6-carboxamide]
IC50 (IL23p19 in THP-1 Cells): 24.7 µM
IC50 (IRAK4): 123 nM
IC50 (TNF-α in human PBMCs): 2.44 µM
IC50 [1, 2]: 1.79 µM
